Data taken from publication PMC10305115, “Development of a Minimalistic Physiologically Based Pharmacokinetic (mPBPK) Model for the Preclinical Development of Spectinamide Antibiotics” (Pharmaceutics, 2023).
Read-outs that look alike come from different tables or passages of the source.

Columns and labels:
[1] = Plasma protein binding by equilibrium dialysis (RED device), mouse plasma; assay type: in vitro ADME, BALB/c mice; conditions: BALB/c; Mouse plasma, 0.5 and 5 mg/L, 37 °C, 4 h; read-out: fuPlasma fraction unbound in plasma
Procedure: (§1) Plasma protein binding was measured by equilibrium dialysis using a RED device (8 kDa molecular cutoff; Thermo Scientific, Rockford, IL, USA) containing plasma and buffer chambers for dialysis and a base plate. Two concentrations (0.5 and 5 mg/L) of 1599 and 1810 were prepared in mouse plasma from BALB/c mice and rat plasma from Sprague-Dawley rats, and an aliquot of 300 µL was added in the plasma chamber in duplicate. A 500 µL aliquot of PBS was added in the buffer chamber for dialysis. Then, the base plate was covered with sealing tape and incubated at 37 °C at approximately 100 rpm on an orbital shaker for 4 h to achieve equilibrium. After incubation, 50 µL of each sample was pipetted from the plasma and buffer chambers into separate micro-centrifuge tubes. A total of 50 µL of plasma was added to the buffer samples and an equal volume of PBS to the collected plasma samples and vortexed. Samples were processed by protein precipitation and analyzed for bound and unbound drug concentrations by liquid chromatography-tandem mass spectrometry (LC-MS/MS). Ranitidine (0.5 and 5 mg/L) was included as a positive control. The fraction of compound unbound to plasma proteins (fu) was calculated from the measured concentrations in the plasma and buffer chambers using the following equation:(1) fu=1−C(Plasma Chamber)−C(Buffer Chamber)/C(Plasma Chamber)

plasma proteins = test: as above; assay type: in vitro ADME, BALB/c mice; conditions: mouse and rat
Procedure: as §1

[2] = Plasma protein binding by equilibrium dialysis (RED device), rat plasma; assay type: in vitro ADME, Sprague-Dawley rats; conditions: Sprague-Dawley, 0.5 and 5 mg/L, 37 °C, read-out: fuPlasma fraction unbound in plasma
Procedure: as §1

[3] = Fraction unbound in epithelial lining fluid calculated by Poulin and Theil equation, mouse; conditions: epithelial lining fluid (calculated), calculated from fu in plasma and albumin ratio plasma/ELF, read-out: fuELF fraction unbound in epithelial lining fluid
Procedure: (§2) For intravenous administration, the bolus dose was assumed to be mixed instantaneously into the venous blood. For subcutaneous administration, the dose was administered as an external compartment, absorbed into the venous compartment via a first-order absorption rate constant and a bioavailability component. For intrapulmonary aerosol administration, we have modified the lung tissue by adding the epithelial lining fluid (ELF) sub-compartment, as shown in Figure 2. The physiological volume of the ELF sub-compartment was obtained from the literature. The dose was administered as an external compartment, absorbed into the ELF compartment via a first-order absorption rate constant and a bioavailability component. The compound was assumed to be bound to the ELF proteins, and only the unbound fraction was distributed to the other sub-compartments of the lungs and ultimately to the systemic circulation. The fraction unbound in ELF was calculated from the fraction unbound in plasma and the albumin ratio between plasma and ELF using the equation described by Poulin and Theil.

[4] = Fraction unbound in epithelial lining fluid calculated by Poulin and Theil equation, rat; conditions: epithelial lining fluid (calculated), calculated from fu in plasma and albumin ratio plasma/ELF, read-out: fuELF fraction unbound in epithelial lining fluid
Procedure: as §2

[5] = Pharmacokinetic studies in healthy rats; assay type: in vivo; conditions: male, Sprague-Dawley, rat, plasma, IV SD 10 mg/kg, generated in this study, read-out: AUCinf Observed
Procedure: Urine samples were collected at predetermined time intervals (0–6, 6–10, 10–24, 24–48 h) up to 48 h after dosing, volumes were recorded, and samples were processed by protein precipitation and analyzed by LC-MS/MS. The fraction of drug excreted unchanged (fe) in urine at each time interval and a cumulative fe were calculated.
An additional single dose intravenous study of spectinamide 1599 with destructive sampling was performed to obtain the tissue PK profiles in rats. In this study, groups of four rats (two male and two female) were euthanized either at 15 min or at 4 h after dosing, and blood, lung, liver, spleen, and kidneys were collected. For tissue samples, the tissues were weighed and homogenized in four volumes of phosphate buffered saline (1× PBS) and stored at −70 °C until LC-MS/MS analysis.
Sample preparation was performed by protein precipitation using methanol. […]
An API 4500 triple quadruple mass spectrometer (Applied Biosystems, Foster City, CA, USA) equipped with a turbospray ion source was operated in the positive ion mode. Selected reaction monitoring using precursor→product ion combinations of m/z 487.2→207.1, 418→207.1, and 365.1→333.2 was used for quantification of spectinamides 1599, 1810 and the IS spectinomycin, respectively.

[6] = Integrated mouse and rat PBPK model, inter-animal variability; conditions: Intravenous Estimate (%RSE); simultaneous fit of mouse and rat plasma and tissue data
[7] = Parallel artificial membrane permeability assay (PAMPA); assay type: in vitro ADME; conditions: passive permeability could not be determined
[8] = Subcutaneous PBPK model predictions vs observed plasma concentrations in Mtb infected mice; assay type: in vivo, BALB/c mice; conditions: SC dose-ranging and dose-fractionation studies
in vivo = conditions: mouse
[9] = cited from earlier work; for AUCinf Liver Observed / AUCinf Lung Observed / AUCinf Observed / AUCinf Spleen Observed: healthy mice; for AUCinf Observed: plasma
[10] = Minimalistic PBPK model, mouse (fitting and simulation)
[11] = Intravenous Estimate (%RSE), model fitted to IV single dose 10 mg/kg plasma and tissue data

CN[C@@H]1[C@H](O)[C@H](NC)[C@H]2O[C@]3(O)[C@H](O[C@@H]2[C@H]1O)O[C@H](C)C[C@H]3NC(=O)Cc1ccc(O)cn1 [Spectinamide 1810, 2-(5-hydroxypyridin-2-yl)-N-((2R,4R,4aS,5aR,6S,7S,8R,9S,9aR,10aS)-4a,7,9-trihydroxy-2-methyl-6,8-bis(methylamino)decahydro-2H-benzo[b]pyrano [2,3-e] [1,4]dioxin-4-yl)acetamide]
fraction unbound at 4 h [1]: 0.693 | plasma protein binding (plasma proteins): low plasma protein binding | fraction unbound at 4 h [2]: 0.607 | fraction unbound [3]: 0.965 | fraction unbound [4]: 0.95 | AUC(0-inf) [5]: 20800 ng·h/mL | ω KI→COther inter-animal variability on KI→COthers [6]: 0.31 (14.7) | PAMPA concentrations in the acceptor compartment [7]: below the limit of detection | difference in pharmacokinetics between healthy and infected mice [8]: no significant difference | half-life (in vivo): 5 min | bioavailability (in vivo; sc): 100% | dose dependency of disposition ([9]; dose range of 10 to 400 mg/kg in mice): did not suggest any dose dependencies | AUCinf Liver Observed ([9]; IV QD5 10 mg/kg): 51.2 µg·h/g | AUCinf Liver Observed ([9]; IV SD 10 mg/kg): 31.6 µg·h/g | AUCinf Lung Observed ([9]; IV QD5 10 mg/kg): 11.2 µg·h/g | AUCinf Lung Observed ([9]; IV SD 10 mg/kg): 5.75 µg·h/g | AUCinf Observed ([9]; IV QD5 10 mg/kg): 9450 ng·h/mL | AUCinf Observed ([9]; IV SD 10 mg/kg): 7910 ng·h/mL | AUCinf Observed ([9]; SC QD5 50 mg/kg): 65500 ng·h/mL | AUCinf Observed ([9]; SC QD5 200 mg/kg): 265000 ng·h/mL | AUCinf Observed ([9]; SC SD 46 mg/kg): 38600 ng·h/mL | AUCinf Observed ([9]; SC SD 50 mg/kg): 67900 ng·h/mL | AUCinf Observed ([9]; SC SD 200 mg/kg): 267000 ng·h/mL | AUCinf Spleen Observed ([9]; IV QD5 10 mg/kg): 9.45 µg·h/g | AUCinf Spleen Observed ([9]; IV SD 10 mg/kg): 4.29 µg·h/g | KC→IKidney 1st order back flux from cellular sub compartment of the kidney [10, 11]: 0.097 (45.1) 1/h | KC→ILiver 1st order back flux from cellular sub compartment of the liver [10, 11]: 0.051 (17.2) 1/h | KC→ILung 1st order back flux from cellular sub compartment of the lung [10, 11]: 0.076 (17.6) 1/h | KC→ISpleen 1st order back flux from cellular sub compartment of the spleen [10, 11]: 0.013 (120) 1/h | KC→Iothers 1st order back flux from cellular sub compartment of the other tissues [10, 11]: 7.0 × 10^−5 (0.00278) 1/h | Ka 1st order absorption rate constant ([10]; Subcutaneous Estimate (%RSE), healthy mice): 8.26 (14.5)
